Here are results for one compound from patent publication US8562974B2, “Method for expanding Cd4+ Cd25+ T regulator cells” (Fondazione Telethon, priority 2005, dated 2013).

The test system of experiment [1] is CD4^+ T cells. Briefly: In vitro treatment of CD4+ T cells with rapamycin: CD4+CD25+ Tr cell content. In kind it is cell-based. The settings on record: in vitro treatment of CD4+ T cells (5-10% Tr cells at start).
The subject of experiment [2] is FOXP3 mRNA. Put plainly: FOXP3 quantitative PCR. The settings on record: CD4+ T cells exposed to rapamycin.
Text: Total RNA was extracted with Eurozol (Euroclone, Switzerland), and cDNA was synthesized with High Capacity cDNA Archive Kit (Applied Biosystems, New Jersey, USA). Levels of FOXP3 mRNA was quantified using Assay on Demand real-time PCR kits (Applied Biosystems, New Jersey, USA) with TaqMan Universal PCR Master Mix (Applied Biosystems, New Jersey, USA). Levels of 18s rRNA was quantified as internal control by using TaqMan PDAR Eukaryotic 18s Endogenus Controls (Applied Biosystems, assay ID: Mm00475156m1). Samples were run in duplicate, and relative expression of FOXP3 was determined by normalizing to 18 s expression in each set of samples in order to calculate a fold-change in value.
To address this question, CD4^+ T cells depleted of the CD25^+ Tr cells were cultured for three weeks in the presence or absence of rapamycin. […] The cultured cells were added in equal number to naïve KJ1-26^+CFSE^+ cells (10^5:10^5) and proliferation was monitored by CFSE dilution. […] Relative levels of mRNA FOXP3 were determined by real time quantitative RT-PCR in CD4^+ (left panel) or CD4^+CD25^− (right panel) T cells repetitively activated in vitro with or without rapamycin. The amounts of FOXP3 mRNA are expressed as relative to that in splenocytes depleted of CD4^+CD25^+ T cells (which was given an arbitrary value of 1). […]
The test system of experiment [3] is CD4^+ T cells isolated from PBMCs. Put plainly: TCR-mediated proliferation and anergy of human CD4+ T cells, CFSE. The class given is cell-based. On the procedure: CD4^+ T cells isolated from PBMCs of healthy subjects or T1D patients were activated with plate bound anti-CD3 (10 μg/ml) and soluble of anti-CD28 (1 μg/ml) mAbs (BD Biosciences). Cells were cultured in the presence of medium (x-vivo 10) alone or with 100 nM rapamycin (Sigma, St Louis, Mo.). Three round of stimulations of 7 days each were performed. IL-2 (BD Biosciences) was added starting from the second round of stimulation at 100 U/ml.
CD4^+ T cells were stained with CFSE either at the beginning of the culture (1st week), or at the end of one (2nd week), or three (4th week) round of stimulations. CFSE^+ CD4^+ T cells were activated in vitro in the presence of anti-CD3+anti-CD28 mAbs in the presence or absence of 100 nM rapamycin. CFSE dilution was monitored 7 days after activation.
After 3 round of stimulations with anti-CD3+anti-CD28 mAbs (T medium) or anti-CD3+anti-CD28 mAbs+rapamycin (T rapamycin), CD4^+ T cells were stained with CFSE and re-stimulated with anti-CD3+anti-CD28 mAbs in the absence of the compound and of exogenous IL-2. CFSE dilution was monitored 7 days after activation. Numbers indicate the percentage of dividing cells.

The subject of experiment [4] is DO11.10 tg CD4^+ T cells. Briefly: Fold expansion of T cells over three rounds of APC+OVA stimulation, direct cell counts. In kind it is cell-based, mice. On the procedure: (§1) 1×10^6 CD4^+ T cells isolated from spleen of DO11.10 tg mice were stimulated with 4×10^6 APC from Balb/c mice (i.e. total splenocytes irradiated 3000 Rad) and 0.6 μM OVA323-339peptide (OVA) (Primm, Milano, Italy). Three rounds of stimulation of 7 days each were performed. IL-2 (BD Biosciences) was added starting from the second round of stimulation at 50 U/ml. Alternatively, 1×10^6 CD4^+ T cells isolated from spleen of Balb/c mice were stimulated with coated 10 μg/ml of αCD3 and soluble 1 μg/ml of αCD28 mAbs (BD Biosciences). Cells were cultured in the presence of medium alone or 100 nM rapamycin (Sigma, St Louis, Mo.). Three rounds of stimulation of 7 days each were performed. IL-2 (BD Biosciences) was added starting from the second round of stimulation at 50 U/ml. In separate experiments, sorted CD4^+CD25^+ T cells isolated from spleen of Balb/c mice were stimulated with coated 10 μg/ml of αCD3, soluble 1 μg/ml of αCD28 mAbs (BD Biosciences) and 1000 U/ml of IL-2. Cells were cultured in the presence of medium alone or 100 nM rapamycin (Sigma, St Louis, Mo.). 1000 U/ml of IL-2 was added at the beginning of each new stimulation.
Fold expansion of T cells was determined after each round of stimulation. […] Rapamycin binds to FKBP12 and the formed complex inhibits the function of mTOR, which is involved in a broad range of physiological processes linked to the control of cell-cycle. […]

Experiment [5] deals with DO11.10 tg CD4^+ T cells. Put plainly: Activation induced cell death (AICD) by annexin V binding, FACS. In kind it is cell-based, mice. The settings on record: APC+OVA, 100 nM rapamycin, 24 and 72 hours, vs control cells. The method, then:
as §1
In more detail, DO11.10 tg CD4^+ T cells were cultured with APC+OVA (medium) or APC+OVA+rapamycin (rapamycin) and AICD was monitored by FACs after 24 and 72 hours of culture. Percentage of PI^+-annexinV^+ cells is indicated in each dot plot.

For experiment [6], the system named is DO11.10 tg CD4^+ T cells. Briefly: CD4+CD25bright T cell content after 3 rounds of stimulation, FACS. The class given is cell-based, mice. On the procedure:
(§2) Cells were stained with the indicated Abs (all from BD Biosciences, Mountain View, Calif.), and were analyzed with a FACScan flow cytometer equipped with CellQuest software (BD Biosciences). To obtain highly purified CD4^+CD25^+/− T cells, CD4^+ T cells were first purified from splenocytes isolated from Balb/c mice by positive selection with αCD4 mAb-coated microbeads (Miltenyi Biotec, Bergisch Gladbach, Germany). Thereafter, CD4^+ T cells were stained with Cy-coupled αCD4 and PE-coupled αCD25 mAbs (BD Biosciences) and CD4^+CD25^+ T cells were sorted by FACS-sorting on a FAC-Star (BD Biosciences).
as §1, with “Cells were cultured in the presence of medium alone or 100 nM rapamycin (Sigma, St Louis, Mo.). 1000 U/ml of IL-2 was added at the beginning of each new stimulation.” left out
After 3 rounds of stimulation with APC+OVA (medium) or APC+OVA+rapamycin (rapamycin), DO11.10 tg CD4^+ T cells were left resting for one week with no further stimulation in the presence of IL-2 (50 U/ml). After seven days cells were analyzed by FACS. […]
1×10^6 DO11.10 tg CD4^+ T cells (containing 70.000 CD4^+CD25^bright T cells) were cultured with APC+OVA (medium, white bar) or APC+OVA+rapamycin (dotted bar, rapamycin). After 3 rounds of stimulation, the total number of CD4^+CD25^brightT cells was determined by FACS.

The test system of experiment [7] is CD4^+CD25^− and CD4^+CD25^+ T cells. Briefly: Proliferation of sorted CD4+CD25- and CD4+CD25+ T cells with anti-CD3+anti-CD28+IL-2, CFSE. The class given is cell-based, human. The settings on record: 100 nM rapamycin, 7 days. The method, then:
CD4^+CD25^− and CD4^+CD25^bright T cells were FACS sorted. Subsequently, sorted CD4^+CD25^− T cells were stained with CSFE and sorted CD4^+CD25^+ T cells were added back to the same amount present in unsorted CD4^+ T cells (5%) (FIG. 13, left panel). Alternatively, sorted CD4^+CD25^+ T cells were stained with CSFE and sorted CD4^+CD25^− T cells were added back to the same amount present in unsorted CD4^+ T cells (95%) (right panel of FIG. 13). The two distinct CFSE stained cell populations were activated with anti-CD3+anti-CD28 mAbs+IL-2 in the presence or absence of 100 nM rapamycin. CFSE dilution was monitored 7 days after activation. Numbers indicate the percentage of CFSE^+ dividing cells.

For experiment [8], the system named is DO11.10 tg CD4^+ T cells. Briefly: Re-stimulation without compound after 3 rounds, CFSE dilution (anergy). The settings on record: after 3 rounds with rapamycin, re-stimulated with APC+OVA without rapamycin and IL-2, 5 days. In kind it is cell-based, mice. The method, then:
The proportion of CFSE^+ cells proliferating in vitro was calculated as described elsewhere (Lyons 1994). Briefly, the number of cells (events) in a given cycle (division: n) was divided by 2 raised to power n, to calculate the percentage of original precursor cells from which they arose. The sum of original precursors from division 1 to 6 represents the number of precursors cells which proliferated. The percent of CFSE^+ divided cells was calculated by [(# of precursors that proliferated1-6/# of total precursors0-6)×100].
In more detail in relation to FIG. 1C, after 3 rounds of stimulation with APC+OVA (medium) or APC+OVA+rapamycin (rapamycin), DO11.10 tg CD4^+T cells were stained with CFSE and re-stimulated with APC+OVA in the absence of the compound and of exogenous IL-2. CFSE dilution was monitored 5 days after activation.

In experiment [9] the test system is DO11.10 tg CD4^+ T cells. Briefly: Cell size by FACS (FSC vs SSC) after 3 rounds of stimulation. The class given is cell-based, mice. The settings on record: 3 weeks activation with rapamycin, one week rest with IL-2 50 U/ml. The method, then:
After 3 rounds of stimulation with APC+OVA (medium) or APC+OVA+rapamycin (rapamycin), DO11.10 tg CD4^+ T cells were left resting for one additional week with no further stimulation in the presence of IL-2 (50 U/ml). At the end of the seven days cell size was analyzed by FACS by plotting FSC vs SSC parameters. Small (continuous line) and big (dotted line) cells are circled. Naïve CD4^+ T cells from a DO11.10 tg mouse were used as control.
Background: Flow cytometry measures light scatter and fluorescence of single cells or particles in a stream.

In experiment [10] the test system is NOD CD4^+ T cells. Put plainly: Ex vivo expansion of NOD CD4+ T cells with rapamycin: regulatory markers. The class given is cell-based. The settings on record: pre-diabetic 11 week old NOD mice, three rounds of stimulation. On the procedure: CD4^+ T cells were obtained by incubation of splenocytes from pre-diabetic or diabetic NOD mice with αCD4 mAb-coated microbeads and applied onto MiniMacs columns (Miltenyi Biotec). The average purity was 95%. 1×10^6 CD4^+ T cells isolated from spleen of NOD mice were stimulated with coated 10 μg/ml of αCD3 and soluble 1 μg/ml of αCD28 mAbs (BD Biosciences). Cells were cultured in the presence of medium alone or 100 nM rapamycin (Sigma, St Louis, Mo.). Three rounds of stimulation of 7 days each were performed. IL-2 (BD Biosciences) was added starting from the second round of stimulation at 100 U/ml.
In this Example, we attempted to generate ex vivo Tr cells from non obese diabetic (NOD) mice. Spontaneously autoimmune diabetes in NOD mice mainly results from quantitative and qualitative changes in autoaggressive T effector cells. Older mice indeed harbor diabetogenic T cells that are progressively less prone to Tr cells-mediated inhibition (You et al. Diabetes, 2005). We tested whether rapamycin could expand functional Tr cells from NOD mice and whether these expanded T cells have a regulatory function. CD4^+ T cells were isolated from the spleen of pre-diabetic 11 week old NOD mice and were activated in vitro with anti-CD3 and CD28 mAbs in the presence of medium or rapamycin.

In experiment [11] the test system is Balb/c CD4^+CD25^+ T cells. Briefly: Culture of sorted CD4+CD25+ T cells with αCD3+αCD28+1000 U/ml IL-2: fold expansion and CD25bright content. In kind it is cell-based, mice. On the procedure: as §2
as §1, with “stimulation. […]” for “stimulation.”
Fold expansion of Balb/c CD4^+CD25^+ T cells 1, 2, and 3 weeks after culture in the presence of αCD3+αCD28+1000 U/ml IL-2 (medium, white bars) or αCD3+αCD28+1000 U/ml IL-2+rapamycin (rapamycin, dotted bars) was evaluated by direct cell counts. […] After seven days, cells were analyzed by FACS. […]

Turning to `CO[C@H]1C[C@@H]2CC[C@@H](C)[C@@](O)(O2)C(=O)C(=O)N2CCCC[C@H]2C(=O)O[C@H]([C@H](C)C[C@@H]2CC[C@@H](O)[C@H](OC)C2)CC(=O)[C@H](C)/C=C(\C)[C@@H](O)[C@@H](OC)C(=O)[C@H](C)C[C@H](C)/C=C/C=C/C=C/1C` [rapamycin], in experiment [1], the “increase of the CD4+CD25+ Tr cell content” value turned out to be 20 fold. In experiment [2], the FOXP3 expression result is on record as “enhanced”. The T cell anergy result in experiment [3] (after 3 rounds, re-stimulated without compound and IL-2) was “Does Not Induce T Cell Anergy”. In addition, in experiment [3] (anti-CD3+anti-CD28, 100 nM rapamycin), the “TCR-mediated proliferation of CD4+ T cells” value is “Strongly Reduces TCR-Mediated Proliferation”. For the same compound, the “kinetic of proliferation (fold expansion)” value in experiment [4] (APC+OVA, 100 nM rapamycin, weeks 1-3) is given as “delayed kinetic of proliferation compared to control cells”; in experiment [11] (100 nM rapamycin) it was “delayed kinetic of proliferation compared to control cells”. Besides, in experiment [4] (end of the third week of culture), the “number of T cells recovered” value was “the same number of T cells was recovered in control- and rapamycin-cultures”. Also, the “apoptosis (AICD) upon in vitro activation” value in [5] is given as “neither increase nor reduction of apoptosis was observed”. For the same compound, the “enrichment in CD4+CD25bright T cells” value in [6] (T cells activated in the presence of rapamycin) is recorded as “highly enriched in”. Also, the “content of CD4+CD25bright Tr cells” value in experiment [6] (cells exposed to rapamycin, 3 rounds APC+OVA) is “around 60%”. The “total number of CD4+CD25bright T cells recovered” value in experiment [6] (three weeks of culture, repetitive Ag-stimulation) is on record as “markedly superior to that of control cultures”. Also, the “TCR-mediated proliferation of CD4+CD25- vs CD4+CD25+ T cells” value in experiment [7] is listed as “Selectively Blocks TCR-Mediated Proliferation of CD4^+CD25^− T Cells but not of CD4^+CD25^+ Tr Cells”. For the same compound, in [8], the “ability to proliferate on re-stimulation” value is reported as “retained their ability to proliferate”. Further, the “cell size and shape” value in experiment [9] was “smaller and displayed a more round-like shape than control cells”. Also, the “enrichment in CD4+CD62L+ and CD45RBlow cells” value in experiment [10] was “highly enriched in”. Moreover, the expansion entry in [11] (starting from the third week of culture) is recorded as “greatly expanded”. Further, the “percentage of CD4+CD25bright T cells” value in experiment [11] (three weeks, vs control cells) is on record as “higher percentage of”.
